Laboratory results as given in US20250340591A1, “COMPOSITION FOR PREVENTING OR TREATING INFLAMMATORY BOWEL DISEASE CONTAINING NOVEL COMPOUND” (ANYGEN CO., LTD., priority 2021, published 2025).
One block for each molecule: values may come before it. Square brackets hold non-standard residues; d marks the D form. Ends that are not written are not given here. Peptide text beside a SMILES is read from it. * marks the point of attachment. His(Trt) = N[C@@H](Cc1cn(C(c2ccccc2)(c2ccccc2)c2ccccc2)cn1)C(=O)O; His(τ-CHPh2) = N[C@@H](Cc1cn(C(c2ccccc2)c2ccccc2)cn1)C(=O)O; Tyr(3-NO2) = N[C@@H](Cc1ccc(O)c([N+](=O)[O-])c1)C(=O)O; dPhe(4-Me) = Cc1ccc(C[C@@H](N)C(=O)O)cc1; Benzhydryl = c1ccc(C(c2ccccc2)*)cc1; Decanoyl = CCCCCCCCCC(=O)*; Octanoyl = CCCCCCCC(=O)*

What was measured:
GPR39 = target: T1, GPR39 (Homo sapiens, UniProt O43194); assay: luciferase assay system (SRE luciferase reporter gene, CV-1 cells expressing GPR39); type: cell-based; set-up: expressed in transfected cells; host or cells: CV-1 fibroblast cell line (Korea Cell Line Bank), adenoviral transduction at 50 MOI
T1 sequence (O43194 1-453): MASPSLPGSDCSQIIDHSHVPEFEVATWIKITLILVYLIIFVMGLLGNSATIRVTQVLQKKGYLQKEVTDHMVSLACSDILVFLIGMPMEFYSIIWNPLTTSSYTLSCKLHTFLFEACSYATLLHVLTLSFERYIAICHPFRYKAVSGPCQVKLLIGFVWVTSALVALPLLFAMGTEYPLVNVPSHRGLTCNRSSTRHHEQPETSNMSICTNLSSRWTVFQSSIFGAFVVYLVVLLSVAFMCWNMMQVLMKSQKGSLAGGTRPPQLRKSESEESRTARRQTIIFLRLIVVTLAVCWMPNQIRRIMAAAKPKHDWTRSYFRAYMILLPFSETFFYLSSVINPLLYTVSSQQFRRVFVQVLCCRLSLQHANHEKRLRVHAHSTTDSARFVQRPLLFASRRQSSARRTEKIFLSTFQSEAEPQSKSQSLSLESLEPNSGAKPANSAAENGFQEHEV

human GPR39 = target: T2, human GPR39 (human, UniProt O43194 1-453); assay: cell-based or functional assay
T2 sequence (looked up): T1 sequence (O43194 1-453)

[1] = target: T3, GPR39 (G protein coupled receptor 39) (UniProt O43194 1-453, limits assumed); assay: cell-based or functional assay
T3 sequence (looked up): T1 sequence (O43194 1-453)

[2] = target: T3, GPR39 (G protein coupled receptor 39); assay: cell-based or functional assay; remark: listed apart in the source

Molecule: C[C@H](NC(=O)[C@H](CCC(N)=O)NC(=O)[C@H](CCC(N)=O)NC(=O)[C@H](CC(=O)O)NC(=O)[C@H](Cc1ccc(O)cc1)NC(=O)[C@H](Cc1ccccc1)NC(=O)[C@@H](N)Cc1cn(C(c2ccccc2)(c2ccccc2)c2ccccc2)cn1)C(=O)N[C@@H](CCCNC(=N)N)C(=O)N[C@@H](Cc1ccccc1)C(N)=O [HKFY-52, (6S,9S,12S,15S,18S)-1-amino-6-(((S)-1-amino-1-oxo-3-phenylpropan-2-yl)carbamoyl)-18-((S)-2-((S)-2-((S)-2-amino-3-(1-trityl-1H-imidazol-4-yl)propanamido)-3-phenylpropanamido)-3-(4-hydroxyphenyl)propanamido)-12,15-bis(3-amino-3-oxopropyl)-1-imino-9-methyl-8,11,14,17-tetraoxo-2,7,10,13,16-pentaazaicosan-20-oic acid] (H-[His(Trt)]FYDQQARF-NH2)
ECmax (−fold induction over basal) (GPR39): 15.5 ± 2.2 fold induction over basal

Molecule: CCCCCCCCCC(=O)NCCCC[C@H](NC(=O)[C@@H](N)Cc1cn(C(c2ccccc2)(c2ccccc2)c2ccccc2)cn1)C(=O)N[C@@H](Cc1ccccc1)C(=O)N[C@@H](Cc1ccc(O)cc1)C(=O)O [HKFY-24, N6-decanoyl-N2-(Nt-trityl-L-histidyl)-L-lysyl-L-phenylalanyl-L-tyrosine] (H-[His(Trt)]K(Decanoyl)FY-OH)
ECmax (−fold induction over basal) (GPR39): 7.03 ± 0.57 fold induction over basal

Molecule: CCCCCCCC(=O)NCCCC[C@H](NC(=O)[C@@H](N)Cc1cn(C(c2ccccc2)(c2ccccc2)c2ccccc2)cn1)C(=O)N[C@@H](Cc1ccccc1)C(=O)N[C@@H](CO)C(=O)O [HKFY-50, N6-octanoyl-N2-(Nt-trityl-L-histidyl)-L-lysyl-L-phenylalanyl-L-serine] (H-[His(Trt)]K(Octanoyl)FS-OH)
ECmax (−fold induction over basal) (GPR39): 16.2 ± 1.5 fold induction over basal

Molecule: CCCCCCCC(=O)NCCCC[C@H](NC(=O)[C@@H](N)Cc1cn(C(c2ccccc2)(c2ccccc2)c2ccccc2)cn1)C(=O)N[C@@H](CC(C)C)C(=O)N[C@@H](Cc1ccc(O)cc1)C(=O)O [HKFY-51, N6-octanoyl-N2-(Nt-trityl-L-histidyl)-L-lysyl-L-leucyl-L-tyrosine] (H-[His(Trt)]K(Octanoyl)LY-OH)
ECmax (−fold induction over basal) (GPR39): 14.4 ± 1.9 fold induction over basal

B1: HKFY-34 (peptide)
peptide: H(Benzhydryl)K(Octanoyl)[dPhe(4-Me)]Y
EC50; Ca2+ influx assay (human GPR39): 2.7 nM
ECmax; Ca2+ influx assay (human GPR39): 2.4 -fold induction over basal
EC50; Reporter gene assay [1]: 6.7 nM
ECmax; Reporter gene assay [1]: 22.4 -fold induction over basal
EC50; SRE-luciferase reporter [2]: 7 nM
ECmax; SRE-luciferase reporter [2]: 22.4 -fold induction over basal

The remaining lines, values ahead:

ECmax (−fold induction over basal) (GPR39): 8.5 ± 2.3 fold induction over basal
Molecule: CCCCCCCC(=O)NCCCC[C@H](NC(=O)[C@@H](N)Cc1c[nH]c(-c2ccccc2)n1)C(=O)N[C@H](Cc1ccc(C)cc1)C(=O)N[C@@H](Cc1ccc(O)cc1)C(=O)O [HKFY-57, ((R)-2-((S)-2-((S)-2-amino-3-(2-phenyl-1H-imidazol-4-yl)propanamido)-6-octanamidohexanamido)-3-(p-tolyl)propanoyl)-L-tyrosine]

ECmax (−fold induction over basal) (GPR39): 10.8 ± 1.41 fold induction over basal
Molecule: CCCCCCCC(=O)NCCCC[C@H](NC(=O)[C@@H](N)Cc1cn(C(c2ccccc2)c2ccccc2)cn1)C(=O)N[C@H](Cc1ccc(C)cc1)C(=O)N[C@@H](Cc1ccc(O)c([N+](=O)[O-])c1)C(=O)O [HKFY-68, (S)-2-((R)-2-((S)-2-((S)-2-amino-3-(1-benzhydryl-1H-imidazol-4-yl)propanamido)-6-octanamidohexanamido)-3-(p-tolyl)propanamido)-3-(4-hydroxy-3-nitrophenyl)propanoic acid] (H-[His(τ-CHPh2)]K(Octanoyl)[dPhe(4-Me)][Tyr(3-NO2)]-OH)
